Reference: ChEMBL document CHEMBL1125524, “Adenosine A1 antagonists. 2. Structure-activity relationships on diuretic activities and protective effects against acute renal failure” (J Med Chem, 1992)

Key:
[1] = tested on: Rattus norvegicus; assay: Serum creatinine concentration measured after intraperitoneal administration of 1 mg/kg of compound to rats(vehicle 4.74+/-0.31); format: functional
[2] = tested on: Rattus norvegicus; assay: Serum creatinine concentration measured after intraperitoneal administration of 0.1 mg/kg of compound to rats(vehicle 6.90+/-0.20); format: functional
[3] = tested on: Rattus norvegicus; assay: Effect on urinary excretion potassium and sodium after oral administration of 0.1 mg/kg to rats(potassium and sodium excretion in control rat is 0.180+/-0.017); format: functional, Urine
[4] = tested on: Rattus norvegicus; assay: Effect on urinary excretion potassium and sodium after oral administration of 0.4 mg/kg to rats(potassium and sodium excretion in control rat is 0.191+/-0.020); format: functional, Urine
[5] = tested on: Rattus norvegicus; assay: Effect on urinary excretion potassium and sodium after oral administration of 1.6 mg/kg to rats(potassium and sodium excretion in control rat is 0.174+/-0.013); format: functional, Urine
[6] = tested on: Rattus norvegicus; assay: Urea nitrogen concentration measured after intraperitoneal administration of 1 mg/kg of compound to rats(vehicle 139.8+/-7.8); format: functional
[7] = tested on: Rattus norvegicus; assay: Percent inhibition of serum creatinine by the compound given as ratio of Cr value in treated to vehicle treated ones after intraperitoneal administration of 1 mg/kg of compound to rats(vehicle 4.74+/-0.31); format: functional; conditions: ip
[8] = tested on: Rattus norvegicus; assay: Ratio of urinary excretion value (urinary volume) in treated rats to that in control rats, at a peroral dose of 0.1 mg/Kg; format: functional, Urine
[9] = tested on: Rattus norvegicus; assay: Ratio of urinary excretion value (urinary volume) in treated rats to that in control rats, at a peroral dose of 0.4 mg/Kg; format: functional, Urine
[10] = tested on: Rattus norvegicus; assay: Ratio of urinary excretion value (urinary volume) in treated rats to that in control rats, at a peroral dose of 1.6 mg/Kg; format: functional, Urine
[11] = tested on: Rattus norvegicus; assay: Ratio of sodium ion/potassium ion concentration in treated rats to that in control rats, at a peroral dose of 0.1 mg/Kg; format: functional
[12] = tested on: Rattus norvegicus; assay: Ratio of sodium ion/potassium ion concentration in treated rats to that in control rats, at a peroral dose of 0.4 mg/Kg; format: functional
[13] = tested on: Rattus norvegicus; assay: Ratio of sodium ion/potassium ion concentration in treated rats to that in control rats, at a peroral dose of 1.6 mg/Kg; format: functional
[14] = tested on: Rattus norvegicus; assay: Ratio of urinary excretion value (Na+ concentration) in treated rats to that in control rats, at a peroral dose of 0.1 mg/Kg; format: functional, Urine
[15] = tested on: Rattus norvegicus; assay: Ratio of urinary excretion value (Na+ concentration) in treated rats to that in control rats, at a peroral dose of 0.4 mg/Kg; format: functional, Urine
[16] = tested on: Rattus norvegicus; assay: Ratio of urinary excretion value (Na+ concentration) in treated rats to that in control rats, at a peroral dose of 1.6 mg/Kg; format: functional, Urine
[17] = tested on: Rattus norvegicus; assay: Percent inhibition of serum creatinine by the compound given as ratio of Cr value in treated to vehicle treated ones after intraperitoneal administration of 0.1 mg/kg of compound to rats(vehicle 6.90+/-0.20); format: functional; conditions: ip
[18] = tested on: Rattus norvegicus; assay: Oral diuretic activity was measured after oral administration of 0.4 mg/kg to rats(control volume is 1.15+/-0.17); format: functional, Urine
[19] = tested on: Rattus norvegicus; assay: Oral diuretic activity was measured after oral administration of 1.6 mg/kg to rats(control volume is 0.86+/-0.09); format: functional, Urine
[20] = tested on: Rattus norvegicus; assay: Urea nitrogen concentration measured after intraperitoneal administration of 0.1 mg/kg of compound to rats(vehicle 171.3+/-6.4); format: functional
[21] = tested on: Rattus norvegicus; assay: Oral diuretic activity was measured after oral administration of 0.1 mg/kg to rats(control volume is 1.05+/-0.11); format: functional, Urine
[22] = tested on: Rattus norvegicus; assay: Percent inhibition of Urea nitrogen by the compound given as ratio of UN value in treated to vehicle treated ones after intraperitoneal administration of 1 mg/kg of compound to rats(vehicle 139.8+/-7.8); format: functional; conditions: ip
[23] = tested on: Rattus norvegicus; assay: Percent inhibition of Urea nitrogen by the compound given as ratio of UN value in treated to vehicle treated ones after intraperitoneal administration of 0.1 mg/kg of compound to rats(vehicle 171.3+/-6.4); format: functional; conditions: ip
[24] = target: T1, Adenosine receptor A1 (Cavia porcellus, UniProt P47745)
T1 sequence (P47745 whole entry): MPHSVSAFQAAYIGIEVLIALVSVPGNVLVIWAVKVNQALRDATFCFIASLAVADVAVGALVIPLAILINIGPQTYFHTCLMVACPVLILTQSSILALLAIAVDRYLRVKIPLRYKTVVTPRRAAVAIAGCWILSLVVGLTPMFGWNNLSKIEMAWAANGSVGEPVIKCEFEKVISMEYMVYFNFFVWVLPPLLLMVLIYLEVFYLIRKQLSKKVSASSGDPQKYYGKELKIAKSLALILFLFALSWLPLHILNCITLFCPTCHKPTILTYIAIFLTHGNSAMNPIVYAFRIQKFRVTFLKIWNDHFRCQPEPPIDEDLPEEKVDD
Description: Binding affinity against adenosine A1 receptor in guinea pig forebrain membranes using N6-[3H]cyclohexyladenosine as radioligand

[25] = target: Adenosine A2 receptor (Rattus norvegicus, UniProt P29276+P30543)
[26] = tested on: Rattus norvegicus; assay: Serum creatinine concentration measured after intraperitoneal administration of 1 mg/kg of compound to rats(vehicle 5.07+/-0.33); format: functional
[27] = tested on: Rattus norvegicus; assay: Serum creatinine concentration measured after intraperitoneal administration of 10 mg/kg of compound to rats(vehicle 5.53+/-0.34); format: functional
[28] = tested on: Rattus norvegicus; assay: Urea nitrogen concentration measured after intraperitoneal administration of 1 mg/kg of compound to rats(vehicle 195.8+/-14.4); format: functional
[29] = tested on: Rattus norvegicus; assay: Percent inhibition of serum creatinine by the compound given as ratio of Cr value in treated to vehicle treated ones after intraperitoneal administration of 10 mg/kg of compound to rats(vehicle 5.53+/-0.34); format: functional; conditions: ip
[30] = tested on: Rattus norvegicus; assay: Effect on urinary excretion potassium and sodium after oral administration of 25 mg/kg to rats(potassium and sodium excretion in control rat is 0.265+/-0.099); format: functional, Urine
[31] = tested on: Rattus norvegicus; assay: Ratio of urinary excretion value (urinary volume) in treated rats to that in control rats, at a peroral dose of 25 mg/Kg; format: functional, Urine
[32] = tested on: Rattus norvegicus; assay: Ratio of sodium ion/potassium ion concentration in treated rats to that in control rats, at a peroral dose of 25 mg/Kg; format: functional
[33] = tested on: Rattus norvegicus; assay: Ratio of urinary excretion value (Na+ concentration) in treated rats to that in control rats, at a peroral dose of 25 mg/Kg; format: functional, Urine
[34] = tested on: Rattus norvegicus; assay: Ratio of urinary excretion value (Na+ concentration) in treated rats to that in control rats, at a peroral dose of 6.25 mg/Kg; format: functional, Urine
[35] = tested on: Rattus norvegicus; assay: Oral diuretic activity was measured after oral administration of 25 mg/kg to rats(control volume is 1.64+/-0.7); format: functional, Urine
[36] = tested on: Rattus norvegicus; assay: Urea nitrogen concentration measured after intraperitoneal administration of 10 mg/kg of compound to rats(vehicle 177.4+/-5.3); format: functional
[37] = tested on: Rattus norvegicus; assay: Percent inhibition of Urea nitrogen by the compound given as ratio of UN value in treated to vehicle treated ones after intraperitoneal administration of 10 mg/kg of compound to rats(vehicle 177.4+/-5.3); format: functional; conditions: ip
[38] = tested on: Rattus norvegicus; assay: Percent inhibition of Urea nitrogen by the compound given as ratio of UN value in treated to vehicle treated ones after intraperitoneal administration of 1 mg/kg of compound to rats(vehicle 195.8+/-14.4); format: functional; conditions: Rattus norvegicus, ip
[39] = tested on: Rattus norvegicus; assay: Ratio of urinary excretion value (urinary volume) in treated rats to that in control rats, at a peroral dose of 6.25 mg/Kg; format: functional, Urine
[40] = organism: Rattus norvegicus; assay: animal or person; conditions: ip, read-out: Inhibition, dose 1 mg/kg, route intraperitoneal

SMILES: CCn1c(=O)c2nc(C3CCCC3)[nH]c2n(CC)c1=O
- Cr [1]: 2.28 mg/dL
- Cr [2]: 5.48 mg/dL
- Na [3]: 0.206 m equiv 6hr-1 100g-1
- Na [4]: 0.342 m equiv 6hr-1 100g-1
- Na [5]: 0.24 m equiv 6hr-1 100g-1
- UN [6]: 65.5 mg/dL
- inhibition in vivo at 1 mg/kg [7]: 52%
- T/C [8]: 1.03
- T/C [9]: 1.64
- T/C [10]: 2.43
- Na+/K+ [11]: 1
- Na+/K+ [12]: 1.54
- Na+/K+ [13]: 1.56
- T/C [14]: 1.15
- T/C [15]: 1.79
- T/C [16]: 2.09
- inhibition in vivo at 0.1 mg/kg [17]: 21%
- Urine volume [18]: 1.89 ml 6hr-1 100g-1
- Urine volume [19]: 2.09 ml 6hr-1 100g-1
- UN [20]: 143.9 mg/dL
- Urine volume [21]: 1.09 ml 6hr-1 100g-1
- inhibition in vivo at 1 mg/kg [22]: 53%
- inhibition in vivo at 0.1 mg/kg [23]: 16%
- Ki [24]: 0.019 µM
- Ki [25]: 0.44 µM

SMILES: CCCn1c(=O)[nH]c(=O)c2[nH]c(C34CC5CC(CC3C5)C4)nc21
- Cr [26]: 4.33 mg/dL
- Cr [27]: 2.83 mg/dL
- UN [28]: 164.9 mg/dL
- inhibition in vivo at 10 mg/kg [29]: 49%
- Na [30]: 0.4 m equiv 6hr-1 100g-1
- T/C [31]: 1.43
- Na+/K+ [32]: 1.29
- T/C [33]: 1.51
- T/C [34]: 1.49
- Urine volume [35]: 2.34 ml 6hr-1 100g-1
- UN [36]: 107.4 mg/dL
- inhibition in vivo at 10 mg/kg [37]: 39%
- inhibition in vivo at 1 mg/kg [38]: 16%
- T/C [39]: 1.26
- Ki [25]: > 100 µM
- inhibition in vivo at 1 mg/kg [40]: 15%
